Two compounds from BindingDB's records for doi:10.1021/jm801176e (Nci-Frederick, 2009) can be followed below.

The structures appear in SMILES notation.

The nature of experiment [1]: Inhibition of HIV1 wild type reverse transcriptase-mediated viral DNA synthesis in human HOS-313 cells expressing HSV thymidine kinase assessed as luciferase activity treated 3 hrs before infection measured after 48 hrs by luminescence assay.
Experiment [2] is described as follows: Inhibition of HIV1 wild type reverse transcriptase-mediated viral DNA synthesis in human HOS cells assessed as luciferase activity treated 3 hrs before infection measured after 48 hrs by luminescence assay.
Experiment [3] in a line: Inhibition of HIV1 reverse transcriptase M184V mutant-mediated viral DNA synthesis in human HOS cells assessed as luciferase activity treated 3 hrs before infection measured after 48 hrs by luminescence assay.
Experiment [4] in a line: Inhibition of HIV1 reverse transcriptase M184V mutant-mediated viral DNA synthesis in human HOS-313 cells expressing HSV thymidine kinase assessed as luciferase activity treated 3 hrs before infection measured after 48 hrs by luminescence assay.

By IC50 is commonly meant the point on the concentration scale where inhibition reaches its midpoint.

On to `Cc1cccc2c1OP(=O)(OC[C@H]1C[C@@H](n3cc(C)c(=O)[nH]c3=O)C[C@@H]1O)OC2` (stereo not given in full), for which the values for the IC50 in experiment [1] and in experiment [2] were 120 nM and 380 nM, respectively.

For `Cc1cn([C@@H]2C[C@H](CO)[C@@H](O)C2)c(=O)[nH]c1=O`, the IC50 is 1800 nM in experiment [3], 190 nM in experiment [4] and 3200 nM in experiment [2].
